From article PMC8174729, “Inhibition of CMP-sialic acid transport by endogenous 5-methyl CMP” (PLoS ONE, 2021) come the findings set out here.

For assay [1], the target named is T1, CMP-sialic acid transporter (CST) (Mus musculus, UniProt Q61420).
T1 sequence (Q61420 1-336): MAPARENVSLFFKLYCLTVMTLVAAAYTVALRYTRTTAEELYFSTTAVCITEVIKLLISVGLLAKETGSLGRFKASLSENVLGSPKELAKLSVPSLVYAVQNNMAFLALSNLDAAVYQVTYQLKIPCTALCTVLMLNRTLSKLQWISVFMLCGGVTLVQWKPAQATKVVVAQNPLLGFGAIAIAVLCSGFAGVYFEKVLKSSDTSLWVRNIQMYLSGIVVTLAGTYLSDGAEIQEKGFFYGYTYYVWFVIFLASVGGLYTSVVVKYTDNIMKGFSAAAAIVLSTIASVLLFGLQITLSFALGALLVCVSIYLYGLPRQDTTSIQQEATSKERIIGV
The assay can be described thus: FSEC thermal shift binding assay with Kd (also inhibits [3H]CMP-Sia uptake in Sf9 cells, IC50 […]). Set-up: gene Slc35a1; Full-length, GFP-tagged mouse CST.

Assay [2] has as its target T1, CMP-sialic acid transporter (CST). The assay can be described thus: X-ray crystal structure at […] Å; FSEC thermal shift binding assay with Kd (also inhibits [3H]CMP-Sia uptake in Sf9 cells, IC50 […]). Also on record: gene Slc35a1; Kd: full-length, GFP-tagged mouse CST; crystal: CSTΔC construct, which lacks the last 15 residues (322–336).

Molecules are shown by their SMILES.

Usually Kd stands for a measure of binding affinity in units of concentration.

With `Nc1ccn([C@@H]2O[C@H](COP(=O)(O)O)[C@@H](O)[C@H]2O)c(=O)n1` [CMP], the Kd in assay [1] was 16.1 µM.

In the case of `Cc1cn([C@@H]2O[C@H](COP(=O)(O)O)[C@@H](O)[C@H]2O)c(=O)nc1N` [m5CMP, 5-methyl CMP], the Kd in assay [2] was determined as 1 µM.
